The values below come from US10683297B2 (Sunshine Lake Pharma Co., Ltd., priority 2017, dated 2020).

Series [1] can be described thus: Compound stability in human liver microsomes. The format is in vitro ADME. The settings on record: for half-life at 5 μM: human liver microsomes 0.5 mg protein/mL, compound 5 μM, NADPH 1.0 mM, pH 7.4, 37° C., read-out: Human T1/2; for CLint scaled at 5 μM: liver microsomes, pH 7.4, in vivo CLint extrapolated from human liver microsome incubation. On the procedure:
(§1) The LC/MS/MS system used in the analysis consists of an Agilent 1200 Series vacuum degasser, binary pump, well-plate autosampler, thermostatted column compartment, the Agilent G6430 Triple Quadrupole Mass Spectrometer with an electrosprayionization (ESI) source. Quantitative analysis was carried out using MRM mode. The parameters for MRM transitions are in the Table A.
(§2) An Agilent XDB-C18, 2.1×30 mm, 3.5 μM column was used for the analysis. 5 μL of the samples were injected. Analysis condition: The mobile phase was 0.1% formic acid in water (A) and 0.1% formic acid in methanol (B). The flow rate was 0.4 mL/min. And the gradient of Mobile phase was in the Table B.
(§3) Alternatively, an Agilent 6330 series LC/MS/MS spectrometer equipped with G1312A binary pumps, a G1367A autosampler and a G1314C UV detector were used in the analysis. An ESI source was used on the LC/MS/MS spectrometer. The analysis was done in positive ion mode as appropriate and the MRM transition for each analyte was optimized using standard solution. A Capcell MP-C18 100×4.6 mm I.D., 5 uM column (Phenomenex, Torrance, Calif., USA) was used during the analysis. The mobile phase was 5 mM ammonia acetate, 0.1% MeOH in water (A): 5 mM ammonia acetate, 0.1% MeOH in acetonitrile (B) (70/30, v/v). The flow rate was 0.6 mL/min. Column was maintained at ambient temperature. 20 μL of the samples were injected.
(§4) Human or rat liver microsomes incubations were conducted in duplicate in polypropylene tubes. The typical incubation mixtures consisted of human or rat liver microsomes (0.5 mg protein/mL), compounds of interest (5 μM) and NADPH (1.0 mM) in a total volume of 200 μL potassium phosphate buffer (PBS, 100 mM, pH 7.4). Compounds were dissolved in DMSO and diluted with PBS such that the final concentration of DMSO was 0.05%. The enzymatic reactions were commenced with the addition of […] after a 3-min preincubation and incubated in a water bath open to the air at 37° C. Reactions were terminated at various time points (0, 5, 10, 15, 30, 60 min) by adding equal volume of ice-cold acetonitrile. The samples were stored at […] until LC/MS/MS assays.
(§5) The concentrations of compounds in the incubation mixtures of human or rat liver microsomes were determined by a LC/MS/MS method. The ranges of the linearity in the concentration range were determined for each tested compounds.
(§6) A parallel incubation was performed using denatured microsomes as the negative control, and reactions were terminated at various time points (0, 15, 60 min) after incubation at 37° C.
(§7) Dextromethorphan (70 μM) was selected as the positive control, and reactions were terminated at various time points (0, 5, 10, 15, 30, 60 min) after incubation at 37° C. Both positive and negative control samples were included in each assay to ensure the integrity of the microsomal incubation system.
(§8) The concentrations of compounds in human or rat liver microsome incubations were plotted as a percentage of the relevant zero time point control for each reaction. The in vivo CLint were extrapolated (ref.: Naritomi, Y.; Terashita, S.; Kimura, S.; Suzuki, A.; Kagayama, A.; and Sugiyama, Y.; Prediction of human hepatic clearance from in vivo animal experiments and in vitro metabolic studies with liver microsomes from animals and humans. Drug Metab. Dispos., 2001, 29: 1316-1324).

Series [2] in a line: Pharmacokinetics after intravenous and oral administration in rats. The format is in vivo. The settings on record: for Clearance (CL) after iv dosing / AUC(0-t) / half-life / Vd: dose 1 mg/kg (Ex. 9: 0.6, Ex. 18: 0.5, Ex. 50: 0.96 mg/kg), iv dosing; for AUC(0-t) / half-life / Vd / bioavailability: rat, plasma; for Vd: read-out: Vss; for bioavailability: oral (generally 5 or 10 mg/kg) versus iv dosing, read-out: F (oral bioavailability). On the procedure:
as §1, §2, §3
The compounds disclosed herein are assessed in pharmacokinetic studies in mice, rats, dogs or monkeys. The compounds are administered as a water solution, 2% HPMC+1% TWEEN®80 in water solution, 5% DMSO+5% solutol in saline, 4% MC suspension or capsule. For the intravenous administration, the animals are generally given at about 0.5, 0.6, 1 or 2 mg/kg dose. For the oral (p.o.) dosing, mice and rats are generally given 5 or 10 mg/kg dose, and dogs and monkeys are generally given 10 mg/kg dose. The blood samples (0.3 mL) are drawn at 0.25, 0.5, 1.0, 2.0, 3.0, 4.0, 6.0, 8.0, 12 and 24 h time points or 0.083, 0.25, 0.5, 1.0, 2.0, 4.0, 6.0, 8.0 and 24 h time points and centrifuged at 3,000 or 4000 rpm for 2 to 10 min. The plasma solutions are collected, and stored at […] until analyzed by LC/MS/MS as described above.

Series [3] is described as follows: Compound stability in rat liver microsomes. Format: in vitro ADME. The conditions noted are these: for CLint scaled at 5 μM: liver microsomes, pH 7.4, in vivo CLint extrapolated from rat liver microsome incubation; for half-life at 5 μM: rat liver microsomes 0.5 mg protein/mL, compound 5 μM, NADPH 1.0 mM, pH 7.4, 37° C., read-out: Rat T1/2. Here is the method:
as §1, §2, §3, §4, §5, §6, §7, §8

The CLint scaled is a measure of how fast metabolising enzymes remove a compound, apart from limits set by blood flow. A word on the AUC(0-t): it is exposure summed from dosing to a finite time, without extrapolation to infinity. Lower therefore signals less exposure. By bioavailability is commonly meant the share of a dose that reaches the circulation, judged against a reference dose that is usually intravenous. In the case of `N#Cc1ccc(N2CCC(Nc3nc(Nc4ccn5ccnc5c4)ncc3Cl)CC2)nn1` [Example 4, 6-(4-((5-chloro-2-(imidazo[1,2-a]pyridin-7-ylamino)pyrimidin-4-yl)amino)piperidin-1-yl)pyridazine-3-carbonitrile], in series [1], the half-life at 5 μM turned out to be 22.3 min and the CLint scaled at 5 μM is 78.1 mL/min/kg. For the same molecule, in series [2], the “Clearance (CL) after iv dosing” value was found to be 19 mL/min/kg, the AUC(0-t) was found to be 909 ng·h/mL, the half-life is 43.8 min and the Vd came out at 1.05 L/kg. Besides, the bioavailability in series [2] was 35.1%. Also, in series [3], the CLint scaled at 5 μM is 75.4 mL/min/kg and the half-life at 5 μM stood at 32.9 min.

Regarding `CCC1CN(c2ccc(C#N)cn2)CCC1Nc1nc(Nc2ccn3cnnc3c2)ncc1Cl` (stereo not shown) [Example 5, 6-(4-((2-([1,2,4]triazolo[4,3-a]pyridin-7-ylamino)-5-chloropyrimidin-4-yl)amino)-3-ethylpiperidin-1-yl)nicotinonitrile], in series [2], the “Clearance (CL) after iv dosing” value was found to be 7.17 mL/min/kg, the AUC(0-t) was 2340 ng·h/mL, the half-life is 265 min and the Vd was determined as 0.56 L/kg. Moreover, the bioavailability in series [2] turned out to be 42.7%.

Take `CCC1CN(c2ccc(C#N)cn2)CCC1Nc1nc(Nc2ccn3ccnc3c2)ncc1Cl` (stereo not shown) [Example 6, 6-(4-((5-chloro-2-(imidazo[1,2-a]pyridin-7-ylamino)pyrimidin-4-yl)amino)-3-ethylpiperidin-1-yl)nicotinonitrile]: in series [2], the “Clearance (CL) after iv dosing” value is 6.33 mL/min/kg, the AUC(0-t) worked out at 2690 ng·h/mL, the half-life is 283 min and the Vd is 0.76 L/kg. Also, the bioavailability in series [2] is 71%.

Regarding `CCC1CN(c2ccc(C#N)nn2)CCC1Nc1nc(Nc2ccn3cnnc3c2)ncc1Cl` (stereo not shown) [Example 7, 6-(4-((2-([1,2,4]triazolo[4,3-a]pyridin-7-ylamino)-5-chloropyrimidin-4-yl)amino)-3-ethylpiperidin-1-yl)pyridazine-3-carbonitrile], in series [1], the half-life at 5 μM worked out at 148 min and the intrinsic metabolic clearance (CLint scaled) at 5 μM is 11.7 mL/min/kg. In series [3], the CLint scaled at 5 μM was 112 mL/min/kg and the half-life at 5 μM stood at 22.2 min.

Take `CN(c1nc(Nc2ccc3ncnn3c2)ncc1Cl)C1CCN(c2ccc(C#N)cn2)CC1` [Example 9, 6-(4-((2-([1,2,4]triazolo[1,5-a]pyridin-6-ylamino)-5-chloropyrimidin-4-yl) (methyl)amino)piperidin-1-yl)nicotinonitrile]: in series [1], the half-life at 5 μM was 71.9 min and the CLint scaled at 5 μM was 24.2 mL/min/kg. Moreover, in series [2], the “Clearance (CL) after iv dosing” value stood at 20.8 mL/min/kg, the exposure AUC(0-t) worked out at 547 ng·h/mL, the half-life was 48.6 min and the Vd came out at 1.13 L/kg. Moreover, the bioavailability in series [2] stood at 69.1%. Moreover, in series [3], the CLint scaled at 5 μM was 303 mL/min/kg and the half-life at 5 μM worked out at 8.21 min.

Regarding `CCC1CN(c2ccc(C#N)nn2)CCC1N(C)c1nc(Nc2ccn3c(C)cnc3c2)ncc1Cl` (stereo not shown) [Example 11, 6-(4-((5-chloro-2-((3-methylimidazo[1,2-a]pyridin-7-yl)amino)pyrimidin-4-yl)(methyl)amino)-3-ethylpiperidin-1-yl)pyridazine-3-carbonitrile], in series [1], the half-life at 5 μM was found to be 330 min and the CLint scaled at 5 μM is 5.26 mL/min/kg. Besides, in series [3], the CLint scaled at 5 μM is 0.34 mL/min/kg and the half-life at 5 μM is 5050 min.

With `CCC1CN(c2ccc(C#N)nn2)CCC1Nc1nc(Nc2ccn3c(C4CC4)cnc3c2)ncc1Cl` (stereo not shown) [Example 15, 6-(4-((5-chloro-2-((3-cyclopropylimidazo[1,2-a]pyridin-7-yl)amino)pyrimidin-4-yl)amino)-3-ethylpiperidin-1-yl)pyridazine-3-carbonitrile], in series [1], the half-life at 5 μM turned out to be 22 min and the CLint scaled at 5 μM is 78.9 mL/min/kg. In series [3], the CLint scaled at 5 μM is 834 mL/min/kg and the half-life at 5 μM came to 2.98 min.

For the molecule `N#Cc1ccc(N2CCC(Nc3nc(Nc4cnn5ccnc5c4)ncc3Cl)CC2)nc1` [Example 18, 6-(4-((5-chloro-2-(imidazo[1,2-b]pyridazin-7-ylamino)pyrimidin-4-yl)amino)piperidin-1-yl)nicotinonitrile], in series [2], the “Clearance (CL) after iv dosing” value amounted to 13.2 mL/min/kg, the AUC(0-t) stood at 638 ng·h/mL, the half-life was 35.4 min and the Vd is 0.5 L/kg. Also, in series [2], the bioavailability is 79.4%.

As to `Cc1cn2c(C)cnc2cc1Nc1ncc(Cl)c(NC2CCN(c3ccc(C#N)nn3)CC2)n1` [Example 22, 6-(4-((5-chloro-2-((3,6-dimethylimidazo[1,2-a]pyridin-7-yl)amino)pyrimidin-4-yl)amino)piperidin-1-yl)pyridazine-3-carbonitrile], the half-life at 5 μM in series [1] is 388 min; in series [3] it was 213 min. For the same molecule, the CLint scaled at 5 μM in series [1] was 4.5 mL/min/kg; in series [3] it was 11.7 mL/min/kg.

Regarding `Cc1cnc2cc(Nc3ncc(Cl)c(NC4CCN(c5ccc(C#N)cn5)CC4)n3)ccn12` [Example 23, 6-(4-((5-chloro-2-((3-methylimidazo[1,2-a]pyridin-7-yl)amino)pyrimidin-4-yl)amino)piperidin-1-yl)nicotinonitrile], in series [2], the “Clearance (CL) after iv dosing” value amounted to 19.7 mL/min/kg, the AUC(0-t) was determined as 844 ng·h/mL, the half-life is 63 min and the Vd came out at 1.68 L/kg. In addition, the bioavailability in series [2] was determined as 63%.

Consider `Cc1cn2ncc(Nc3ncc(Cl)c(NC4CCN(c5ccc(C#N)cn5)CC4)n3)cc2n1` [Example 37, 6-(4-((5-chloro-2-((2-methylimidazo[1,2-b]pyridazin-7-yl)amino)pyrimidin-4-yl)amino)piperidin-1-yl)nicotinonitrile], for which, in series [2], the “Clearance (CL) after iv dosing” value turned out to be 11.5 mL/min/kg, the AUC(0-t) turned out to be 1460 ng·h/mL, the half-life is 55.8 min and the Vd was 0.83 L/kg. In addition, the bioavailability in series [2] stood at 47.8%.

For the molecule `CCC1CN(c2ccc(C#N)cn2)CCC1Nc1nc(Nc2ccn3c(C(C)(C)O)nnc3c2)ncc1Cl` (stereo not shown) [Example 41], in series [1], the half-life at 5 μM came out at 198 min and the CLint scaled at 5 μM is 8.8 mL/min/kg. In addition, in series [3], the CLint scaled at 5 μM was 57.9 mL/min/kg and the half-life at 5 μM is 42.9 min.

Turning to `CC(O)Cn1cnc2ncc(Nc3ncc(Cl)c(NC4CCN(c5ccc(C#N)cn5)CC4)n3)cc21` (stereo not shown) [Example 51, 6-(4-((5-chloro-2-((1-(2-hydroxypropyl)-1H-imidazo[4,5-b]pyridin-6-yl)amino)pyrimidin-4-yl)amino)piperidin-1-yl)nicotinonitrile], in series [1], the half-life at 5 μM turned out to be 31.6 min and the CLint scaled at 5 μM was 54.9 mL/min/kg. In series [3], the CLint scaled at 5 μM was 73.1 mL/min/kg and the half-life at 5 μM stood at 34 min.
